According to US4476120A, “Thiolic derivatives of erythromycin having therapeutic activity, and pharmaceutical compositions containing them” (Sigma Tau Indistrie Farmaceutiche Riunites, p.A, priority 1982, dated 1984):
Converted amounts (≈) assume the structure as drawn. Read-outs that look alike come from different tables or passages of the source.

Experiments:
[1] = Hematic levels in the rat (absorption by oral route); conditions: for absorption by oral route (in words): from in vivo antibacterial and pharmacodynamic tests
Pr. vulgaris SS 10 = format: cell-based; conditions: Brain Heart Infusion, estolate and RV11-RV15 previously hydrolized, unit assumed
Sr. marcescens SS 03 = format: cell-based; conditions: Brain Heart Infusion, estolate and RV11-RV15 previously hydrolized, unit assumed
Staph. albus SS 04 = format: cell-based; conditions: Brain Heart Infusion, estolate and RV11-RV15 previously hydrolized, unit assumed
N. gonorreae SS 27 = format: cell-based; conditions: Brain Heart Infusion, estolate and RV11-RV15 previously hydrolized, unit assumed
Staph. aureus SS 09 = format: cell-based; conditions: Brain Heart Infusion, estolate and RV11-RV15 previously hydrolized, unit assumed
[2] = Hematic levels in the healthy volunteer; format: in vivo, healthy volunteers; conditions: oral, 500 mg of erythromycin, average
Excerpt: For the dosing, the microbiological method using a B. subtilis strain was adopted.

[3] = in vivo; for Hematic levels in the rat: po, 100 mg/kg; for absorption by oral route (in words): rat
[4] = 0.30 hours, 100 mg/kg as erythromycin, average, 100 mg/kg, 18 min
[5] = 1 hour, 100 mg/kg as erythromycin, average, 100 mg/kg, 60 min
[6] = 4 hours, 100 mg/kg as erythromycin, average, 100 mg/kg, 240 min
[7] = 5 hours, 100 mg/kg as erythromycin, average, 100 mg/kg, 300 min
[8] = 6 hours, 100 mg/kg as erythromycin, average, 100 mg/kg, 360 min
[9] = 2 hours, 100 mg/kg as erythromycin, average, 100 mg/kg, 120 min
[10] = 3 hours, 100 mg/kg as erythromycin, average, 100 mg/kg, 180 min

Compound | Hematic levels in the rat [1, 4] [µg/mL] | Hematic levels in the rat [1, 5] [µg/mL] | Hematic levels in the rat [1, 6] [µg/mL] | Hematic levels in the rat [1, 7] [µg/mL] | Hematic levels in the rat [1, 8] [µg/mL] | absorption by oral route (in words) [1] | MIC (Pr. vulgaris SS 10) [µg/mL] | MIC (Sr. marcescens SS 03) [µg/mL] | MIC (Staph. albus SS 04) [µg/mL] | MIC (N. gonorreae SS 27) [µg/mL] | MIC (Staph. aureus SS 09) [µg/mL] | Hematic levels in the rat [1, 9] [µg/mL] | Hematic levels in the rat [1, 10] [µg/mL] | Hematic levels in the healthy volunteer ([2]; 0.30 hours, 18 min) [µg/mL] | Hematic levels in the healthy volunteer ([2]; 1 hour, 60 min) [µg/mL] | Hematic levels in the healthy volunteer ([2]; 2 hours, 120 min) [µg/mL] | Hematic levels in the healthy volunteer ([2]; 3 hours, 180 min) [µg/mL] | Hematic levels in the healthy volunteer ([2]; 4 hours, 240 min) [µg/mL] | Hematic levels in the rat ([3]; 0.3 h) [µg/mL] | Hematic levels in the rat ([3]; 1 h) [µg/mL] | also measured
CC[C@H]1OC(=O)[C@H](C)[C@@H](O[C@H]2C[C@@](C)(OC)[C@@H](O)[C@H](C)O2)[C@H](C)[C@@H](O[C@@H]2O[C@H](C)C[C@H](N(C)C)[C@H]2O)[C@](C)(O)C[C@@H](C)C(=O)[C@H](C)[C@@H](O)[C@]1(C)O [RV01, erythromycin alpha-mercaptosuccinate] | 0.48 | 0.79 | 0.44 | 0.24 | 0.03 | poorly absorbed by oral route and in a rate like that of erythromycin base | > 200 | 200 (≈ 273 µM) | 0.05 (≈ 0.0681 µM) | 0.8 (≈ 1.09 µM) | 0.1 (≈ 0.136 µM) | – | – | – | – | – | – | – | – | – | concentration at 2 h ([1]; rat, blood, po, 100 mg/kg, Hematic levels in the rat, 2 hours, 100 mg/kg as erythromycin, average): 1180 ng/mL; concentration at 3 h ([1]; rat, blood, po, 100 mg/kg, Hematic levels in the rat, 3 hours, 100 mg/kg as erythromycin, average): 770 ng/mL
CC[C@H]1OC(=O)[C@H](C)[C@@H](O[C@H]2C[C@@](C)(OC)[C@@H](O)[C@H](C)O2)[C@H](C)[C@@H](O[C@@H]2O[C@H](C)C[C@H](N(C)C)[C@H]2O)[C@](C)(O)C[C@@H](C)C(=O)[C@H](C)[C@@H](O)[C@]1(C)O [RV03, erythromycyn-thiazolidin-carboxylate] | 0.58 | 0.71 | 0.59 | 0.36 | 0.07 | poorly absorbed by oral route and in a rate like that of erythromycin base | > 200 | 100 (≈ 136 µM) | 0.025 (≈ 0.0341 µM) | 0.8 (≈ 1.09 µM) | 0.05 (≈ 0.0681 µM) | 1.30 | 0.77 | – | – | – | – | – | – | – | –
CC[C@H]1OC(=O)[C@H](C)[C@@H](O[C@H]2C[C@@](C)(OC)[C@@H](O)[C@H](C)O2)[C@H](C)[C@@H](O[C@@H]2O[C@H](C)C[C@H](N(C)C)[C@H]2O)[C@](C)(O)C[C@@H](C)C(=O)[C@H](C)[C@@H](O)[C@]1(C)O [RV04, erythromycin-S-carboxymethylcysteinate] | 0.50 | 0.71 | 0.68 | 0.43 | 0.15 | poorly absorbed by oral route and in a rate like that of erythromycin base | > 200 | > 200 | 0.05 (≈ 0.0681 µM) | 0.8 (≈ 1.09 µM) | 0.025 (≈ 0.0341 µM) | 1.30 | 1.04 | – | – | – | – | – | – | – | –
CC[C@H]1OC(=O)[C@H](C)[C@@H](O[C@H]2C[C@@](C)(OC)[C@@H](O)[C@H](C)O2)[C@H](C)[C@@H](O[C@@H]2O[C@H](C)C[C@H](N(C)C)[C@H]2O)[C@](C)(O)C[C@@H](C)C(=O)[C@H](C)[C@@H](O)[C@]1(C)O [RV05, erythromycin-N-acetylcysteinate] | 0.44 | 0.83 | 0.59 | 0.40 | 0.08 | poorly absorbed by oral route and in a rate like that of erythromycin base | > 200 | 200 (≈ 273 µM) | 0.025 (≈ 0.0341 µM) | 0.8 (≈ 1.09 µM) | 0.1 (≈ 0.136 µM) | 1.41 | 1.03 | – | – | – | – | – | – | – | –
CCC(=O)O[C@H]1[C@H](O[C@@H]2[C@@H](C)[C@H](O[C@H]3C[C@@](C)(OC)[C@@H](O)[C@H](C)O3)[C@@H](C)C(=O)O[C@H](CC)[C@@](C)(O)[C@H](O)[C@@H](C)C(=O)[C@H](C)C[C@@]2(C)O)O[C@H](C)C[C@@H]1N(C)C [RV11, erythromycin-monopropionate-alpha-mercaptosuccinate] | – | – | – | – | – | – | > 200 | 200 (≈ 253 µM) | 0.05 (≈ 0.0633 µM) | 0.4 (≈ 0.506 µM) | 0.1 (≈ 0.127 µM) | – | – | 1.28 | 1.70 | 2.16 | 1.48 | 1.21 | 0.72 | 1.64 | Hematic levels in the rat ([3]; 2 h): 2.50 µg/mL; Hematic levels in the rat ([3]; 3 h): 1.31 µg/mL; Hematic levels in the rat ([3]; 4 h): 0.58 µg/mL; Hematic levels in the rat ([3]; 5 h): 0.38 µg/mL; Hematic levels in the rat ([3]; 6 h): 0.08 µg/mL; absorption by oral route (in words) [3]: absorbed by oral route in a rate practically analogous to that of erythromycin estolate
CCC(=O)O[C@H]1[C@H](O[C@@H]2[C@@H](C)[C@H](O[C@H]3C[C@@](C)(OC)[C@@H](O)[C@H](C)O3)[C@@H](C)C(=O)O[C@H](CC)[C@@](C)(O)[C@H](O)[C@@H](C)C(=O)[C@H](C)C[C@@]2(C)O)O[C@H](C)C[C@@H]1N(C)C [RV13, erythromycin-monopropionate-thiazolidin-carboxylate] | – | – | – | – | – | – | > 200 | 100 (≈ 127 µM) | 0.025 (≈ 0.0316 µM) | 0.8 (≈ 1.01 µM) | 0.1 (≈ 0.127 µM) | – | – | 1.16 | 1.67 | 2.21 | 1.67 | 1.29 | 0.81 | 1.80 | Hematic levels in the rat ([3]; 2 h): 2.47 µg/mL; Hematic levels in the rat ([3]; 3 h): 1.10 µg/mL; Hematic levels in the rat ([3]; 4 h): 0.72 µg/mL; Hematic levels in the rat ([3]; 5 h): 0.52 µg/mL; Hematic levels in the rat ([3]; 6 h): 0.12 µg/mL; absorption by oral route (in words) [3]: absorbed by oral route in a rate practically analogous to that of erythromycin estolate
CCC(=O)O[C@H]1[C@H](O[C@@H]2[C@@H](C)[C@H](O[C@H]3C[C@@](C)(OC)[C@@H](O)[C@H](C)O3)[C@@H](C)C(=O)O[C@H](CC)[C@@](C)(O)[C@H](O)[C@@H](C)C(=O)[C@H](C)C[C@@]2(C)O)O[C@H](C)C[C@@H]1N(C)C [RV15, erythromycin monopropionate N-acetylcysteinate] | – | – | – | – | – | – | > 200 | 200 (≈ 253 µM) | 0.05 (≈ 0.0633 µM) | 0.8 (≈ 1.01 µM) | 0.05 (≈ 0.0633 µM) | – | – | 1.10 | 1.58 | 2.17 | 1.72 | 1.38 | 0.85 | 1.90 | Hematic levels in the rat ([3]; 2 h): 2.68 µg/mL; Hematic levels in the rat ([3]; 3 h): 1.19 µg/mL; Hematic levels in the rat ([3]; 4 h): 0.55 µg/mL; Hematic levels in the rat ([3]; 5 h): 0.44 µg/mL; Hematic levels in the rat ([3]; 6 h): 0.03 µg/mL; absorption by oral route (in words) [3]: absorbed by oral route in a rate practically analogous to that of erythromycin estolate
